Data: ChEMBL document CHEMBL1687856, “Oroidin inhibits the activity of the multidrug resistance target Pdr5p from yeast plasma membranes” (J Nat Prod, 2011)
pIC50: −log10 of the molar value. Calls of active or inactive are those of the source. The rule behind the calls is not given here.

Columns and labels:
Saccharomyces cerevisiae [1] = test: Inhibition of Pdrp5-mediated rhodamine 6G accumulation in Saccharomyces cerevisiae AD124567 at 20 uM after 2 hrs by fluorescence microscopic analysis
Saccharomyces cerevisiae [2] = test: Antimicrobial activity against Saccharomyces cerevisiae AD124567 assessed as growth yield reduction at 200 uM after 48 hrs by chemosensitization assay; details: AD124567, 48 h, read-out: GI
Saccharomyces cerevisiae [3] = test: Antimicrobial activity against Pdrp5 overexpressing Saccharomyces cerevisiae AD124567 assessed as growth yield reduction at 200 uM after 48 hrs by chemosensitization assay; format: functional; details: AD124567, 48 h, read-out: GI
Saccharomyces cerevisiae [4] = test: Inhibition of Prdp5 in Saccharomyces cerevisiae AD124567 assessed as inhibition of glucose-dependent rhodamine 6G efflux after 13 mins by spectrofluorimetry in presence of 2-deoxyglucose treated for 30 mins before compound addition
Saccharomyces cerevisiae [5] = test: Inhibition of Prdp5 in Saccharomyces cerevisiae AD124567 assessed as inhibition of glucose-dependent rhodamine 6G efflux after 13 mins at 200 uM by spectrofluorimetry in presence of 2-deoxyglucose treated for 30 mins before compound addition
[6] = Inhibition of Pdr5p-dependent UTPase activity in Saccharomyces cerevisiae AD124567 assessed as release of inorganic phosphate after 60 mins […]
Saccharomyces cerevisiae [7] = test: Inhibition of Prdp5 in Saccharomyces cerevisiae AD124567 assessed as inhibition of glucose-dependent rhodamine 6G efflux after 2 hrs at 100 uM by fluorescence microscopy
[8] = Inhibition of Pdr5p-dependent ATPase activity in Saccharomyces cerevisiae AD124567 assessed as release of inorganic phosphate after 60 mins […]

| inhibition (Saccharomyces cerevisiae [1]) | SMILES | inhibition of growth at 200 µM (Saccharomyces cerevisiae [2]) [%] | inhibition of growth at 200 µM (Saccharomyces cerevisiae [3]) [%] | inhibition (Saccharomyces cerevisiae [4]) | inhibition (Saccharomyces cerevisiae [5]) [%] | pIC50 [6] | inhibition (Saccharomyces cerevisiae [7]) | pIC50 [8] |
| --- | --- | --- | --- | --- | --- | --- | --- | --- |
| Active | C=CC[C@@H]1/C=C(\C)C[C@H](C)C[C@H](OC)[C@H]2O[C@@](O)(C(=O)C(=O)N3CCCC[C@H]3C(=O)O[C@H](/C(C)=C/[C@@H]3CC[C@@H](O)[C@H](OC)C3)[C@H](C)[C@@H](O)CC1=O)[C@H](C)C[C@@H]2OC | – | – | – | – | – | – | – |
| – | Nc1ncc(/C=C/CNC(=O)c2cc(Br)c(Br)[nH]2)[nH]1 [OROIDIN] | 30 | 30 | Dose-dependent effect | 60 | 4.89 | Active | 4.70 |
